Source: ChEMBL document CHEMBL1152733, “Specificities of calreticulin transacetylase to acetoxy derivatives of 3-alkyl-4-methylcoumarins: effect on the activation of nitric oxide synthase” (Bioorg Med Chem, 2009)
Calls of active or inactive are those of the source.

What was measured:
Rattus norvegicus [1] = organism: Rattus norvegicus; assay: Inhibition of rat liver microsomal CRTAase catalyzed activation of NADPH cytochrome C reductase
Platelet = assay: Increase in NO levels in citreated human platelet rich plasma assessed as enhancement of dichloro fluorescein fluorescence by flow cytometry; format: functional
Rattus norvegicus [2] = organism: Rattus norvegicus; assay: Inhibition of rat liver microsomal CRTAase-mediated inhibition of cytosolic glutathione S-transferase activity

Measured: Activity

CCCCCCCCCCc1c(C)c2ccc(OC(C)=O)c(OC(C)=O)c2oc1=O
active: all assays above

CCCCCCc1c(C)c2ccc(OC(C)=O)c(OC(C)=O)c2oc1=O
active: all assays above

CCCCCCCCCCc1c(C)c2ccc(OC(C)=O)cc2oc1=O
active: all assays above

CCc1c(C)c2ccc(OC(C)=O)c(OC(C)=O)c2oc1=O
active: all assays above

CCc1c(C)c2ccc(OC(C)=O)cc2oc1=O
active: all assays above

CCCCCCc1c(C)c2ccc(OC(C)=O)cc2oc1=O
active: all assays above

CC(=O)Oc1ccc2c(C)cc(=O)oc2c1
active: all assays above

CC(=O)Oc1ccc2c(C)cc(=O)oc2c1OC(C)=O
active: all assays above
